Values quoted from earlier work, collected in US6444676B1, “Use of PARP inhibitors in the treatment of glaucoma” (priority 1999, dated 2002).

How the values were obtained:
[1] = tested on: neuronal apoptosis; conditions: induced by various injuries including amino acid excitotoxicity
[2] = tested on: rat retina; conditions: at 3 mM or higher concentrations, administered via intracameral infusion

Structure (SMILES) | prevention of neuronal apoptosis [1] | ischemia/reperfusion damage and DNA fragmentation in rat retina [2]
NC(=O)c1ccccc1 [benzamide] | prevent neuronal apoptosis | 
Nc1cccc2c(=O)[nH][nH]c(=O)c12 [3-aminophtalhydrazide] | prevent neuronal apoptosis | 
Oc1cccc2c(O)nccc12 [1,5-dihydroxyisoquinoline] | prevent neuronal apoptosis | 
NC(=O)c1cccc(N)c1 [3-aminobenzamide] | prevent neuronal apoptosis | reduce ischemia/reperfusion damage and DNA fragmentation
